Source: the supplement of paper PMC10307832

What was measured:
Test in all cases: relative viability (nuclei count vs DMSO), 5 days (fraction); higher = more cells survive
[1] = compound: O=S(=O)(c1ccccc1)N(CC(F)(F)F)c1ccc(C(O)(C(F)(F)F)C(F)(F)F)cc1 + Nc1nc2[nH]cc(CCc3ccc(C(=O)N[C@@H](CCC(=O)O)C(=O)O)cc3)c2c(=O)[nH]1 [Pemetrexed] (partner 0.2 µM)
Procedure, shortened: (§1)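 Medians of duplicate plates are given as relative viability. That measure is the nuclei count in treated wells divided by the count in vehicle wells. Counts were taken on 4× images of lung cancer cell lines in 1536-well plates, 5 days after pin-tool dosing the day after seeding with one drug alone or a fixed anchor-drug dose plus five library-drug doses (not always all listed) in √10 steps.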

[2] = compound: O=S(=O)(c1ccccc1)N(CC(F)(F)F)c1ccc(C(O)(C(F)(F)F)C(F)(F)F)cc1 + C[C@]1(O)C[C@@H](c2nc(-c3ccc4ccc(-c5ccccc5)nc4c3)c3c(N)nccn32)C1 [Linsitinib] (partner 1 µM)
Procedure, shortened: as §1

[3] = compound: C1=CC2=C(C=CC(=C2)C=C3C(=O)NC(=NCC4=CC=CS4)S3)N=C1 [RO-3306] + Cc1cc(Nc2cc(N3CCN(C)CC3)nc(Sc3ccc(NC(=O)C4CC4)cc3)n2)n[nH]1 [Tozasertib] (partner 0.1 µM)
Procedure, shortened: as §1

[4] = compound: O=S(=O)(c1ccccc1)N(CC(F)(F)F)c1ccc(C(O)(C(F)(F)F)C(F)(F)F)cc1 + CCNC(=O)c1noc(-c2cc(C(C)C)c(O)cc2O)c1-c1ccc(CN2CCOCC2)cc1 [Luminespib] (partner 0.01 µM)
Procedure, shortened: as §1

[5] = compound: O=S(=O)(c1ccccc1)N(CC(F)(F)F)c1ccc(C(O)(C(F)(F)F)C(F)(F)F)cc1 + O=C(c1cc(Cc2n[nH]c(=O)c3ccccc23)ccc1F)N1CCN(C(=O)C2CC2)CC1 [Olaparib] (partner 8 µM)
Procedure, shortened: as §1

| Cell Line | relative viability ([1]; first compound 0.8 µM) | relative viability ([1]; first compound 2.53 µM) | relative viability ([1]; first compound 8 µM) | relative viability ([2]; first compound 0.8 µM) | relative viability ([2]; first compound 2.53 µM) | relative viability ([2]; first compound 8 µM) | relative viability ([3]; first compound 0.01 µM) | relative viability ([3]; first compound 0.03162 µM) | relative viability ([3]; first compound 0.1 µM) | relative viability ([3]; first compound 0.3162 µM) | relative viability ([3]; first compound 1 µM) | relative viability ([4]; first compound 0.8 µM) | relative viability ([4]; first compound 2.53 µM) | relative viability ([4]; first compound 8 µM) | relative viability ([5]; first compound 0.8 µM) | relative viability ([5]; first compound 2.53 µM) | relative viability ([5]; first compound 8 µM) |
| --- | --- | --- | --- | --- | --- | --- | --- | --- | --- | --- | --- | --- | --- | --- | --- | --- | --- |
| NCI-H1437 | 0.324 | 0.308 | 0.326 | 1.07 | 0.859 | 0.893 | 0.485 | 0.328 | 0.384 | 0.397 | 0.474 | 1.12 | 0.903 | 0.831 | 0.598 | 0.591 | 0.597 |
| 201T | 0.331 | 0.343 | 0.401 | 0.996 | 0.941 | 1.04 | 1 | 0.933 | 0.925 | 0.975 | 0.964 | 1.05 | 0.887 | 0.975 | 0.815 | 0.793 | 0.819 |
| EBC-1 |  |  |  | 0.911 | 0.47 | 0.695 |  |  |  |  |  |  |  |  | 0.692 | 0.584 | 0.597 |
| LCLC-97TM1 |  | 0.16 | 0.179 | 0.197 | 0.179 | 0.202 | 0.224 | 0.22 | 0.175 | 0.205 | 0.172 | 0.716 | 0.744 | 0.682 |  | 0.355 | 0.257 |
| NCI-H522 | 1.03 | 1.11 | 0.877 |  |  |  | 0.545 | 0.495 | 0.595 | 0.567 | 0.5 | 1.39 | 1.27 | 1.07 | 0.597 | 0.614 | 0.714 |
| NCI-H1395 | 0.887 | 0.816 | 0.924 | 1.23 | 1.05 | 1.21 | 0.635 | 0.681 | 0.749 | 0.696 | 0.643 | 0.75 | 0.701 | 0.714 | 0.409 | 0.458 | 0.467 |
| LU99A | 0.184 | 0.18 | 0.18 | 0.47 | 0.524 | 0.558 | 0.285 | 0.257 | 0.258 | 0.254 | 0.231 | 0.332 | 0.226 | 0.185 | 0.253 | 0.248 | 0.392 |
| Calu-6 |  |  |  | 0.908 | 0.826 | 0.926 |  |  |  |  |  |  |  |  | 0.562 | 0.58 | 0.571 |
| NCI-H2228 | 0.373 | 0.309 | 0.333 | 0.615 | 0.727 | 0.391 | 0.225 | 0.219 | 0.221 | 0.168 | 0.223 | 0.154 | 0.165 | 0.122 | 0.678 | 0.578 | 0.589 |
| NCI-H1915 | 0.518 | 0.464 | 0.51 | 1.14 | 1.03 | 1.06 | 0.498 | 0.406 | 0.416 | 0.394 | 0.427 | 0.813 | 0.776 | 0.786 | 0.266 | 0.263 | 0.269 |
